Experimental data published in US20250074920A1, “MACROCYCLIC COMPOUNDS AND USE AS KINASE INHIBITORS” (BLOSSOMHILL THERAPEUTICS, INC., priority 2022, published 2025).

Tests used:
Experiment in all cases: KINOMEscan kinase binding assay
Conditions in all cases: at 1 μM
FLT4 = tested on: FLT4
Outline: (§1)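 We measured how much kinase stayed bound to an immobilized small-molecule ligand when test compound was present. Binding ran at room temperature for 1 h, and the kinase eluted from the beads was counted by qPCR. Lower % Ctrl indicated tighter compound binding.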

TEC = tested on: TEC
Outline: as §1

BTK = tested on: BTK
Outline: as §1

LYN = tested on: LYN
Outline: as §1

EPHA5 = tested on: EPHA5
Outline: (§2)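 Steps: biotinylated ligand loaded onto streptavidin beads (30 min RT), then biotin-blocked; kinase, beads and compound combined in SeaBlock/PBS/Tween/DTT buffer for 1 h RT; beads washed; kinase eluted with 0.5 μM non-biotinylated ligand; eluate quantified by qPCR.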

INSRR = tested on: INSRR
Outline: as §1

FGR = tested on: FGR
Outline: as §1

BLK = tested on: BLK
Outline: as §1

EPHA1 = tested on: EPHA1
Outline: as §2

CSK = tested on: CSK
Outline: as §1

EGFR(L861Q) = tested on: EGFR(L861Q)
Outline: as §2

ABL1-nonphosphorylated = tested on: ABL1-nonphosphorylated
Outline: as §1

EPHA7 = tested on: EPHA7
Outline: as §2

FLT3(D835V) = tested on: FLT3(D835V)
Outline: as §1

TRKB = tested on: TRKB
Outline: as §1

KIT(D816V) = tested on: KIT(D816V)
Outline: as §1

SRC = tested on: SRC
Outline: as §1

MST1R = tested on: MST1R
Outline: as §1

EPHB3 = tested on: EPHB3
Outline: as §1

RET(V804L) = tested on: RET(V804L)
Outline: as §1

ERBB2 = tested on: ERBB2
Outline: as §1

MET(Y1235D) = tested on: MET(Y1235D)
Outline: as §1

TIE2 = tested on: TIE2
Outline: as §1

LTK = tested on: LTK
Outline: as §1

BRK = tested on: BRK
Outline: as §1

EPHA6 = tested on: EPHA6
Outline: as §2

TYRO3 = tested on: TYRO3
Outline: as §1

KIT = tested on: KIT
Outline: as §1

ERBB4 = tested on: ERBB4
Outline: as §1

ALK = tested on: ALK
Outline: as §1

KIT(V559D) = tested on: KIT(V559D)
Outline: as §1

[1] = tested on: EGFR(L747-S752del, P753S)
Outline: as §1

FGFR3(G697C) = tested on: FGFR3(G697C)
Outline: as §1

CTK = tested on: CTK
Outline: as §1

EGFR(E746-A750del) = tested on: EGFR(E746-A750del)
Outline: as §1

KIT(L576P) = tested on: KIT(L576P)
Outline: as §1

EPHA8 = tested on: EPHA8
Outline: as §1

[2] = tested on: ABL1(M351T)-phosphorylated
Outline: as §1

TRKC = tested on: TRKC
Outline: as §1

VEGFR2 = tested on: VEGFR2
Outline: as §1

[3] = tested on: ABL1(E255K)-phosphorylated
Outline: as §1

EGFR(L858R) = tested on: EGFR(L858R)
Outline: as §2

`Cc1cc2c([nH]1)/C=C1\C(=O)Nc3c(Cl)cc(cc31)-c1cn(C)nc1COC[C@@H](C)N(C)C2=O` [Cpd. 5, [3a(4)Z,10R]-20-chloro-6,9,10,15-tetramethyl-10,11,13,15-tetrahydro-2H-1,17-(ethanediylidene)pyrazolo[4,3-m]dipyrrolo[3,2-f:3′,4′-i][1,4]oxazacyclopentadecine-3,8(5H,9H)-dione] was tested, and the “% Ctrl” value (FLT4) was 98%, the “% Ctrl” value (TEC) was 94% and the “% Ctrl” value (BTK) was 68%. For the same compound, the “% Ctrl” value (LYN) was 91%, the “% Ctrl” value (EPHA5) was 97% and the “% Ctrl” value (INSRR) was 99%. For the same compound, the “% Ctrl” value (FGR) was 93%, the “% Ctrl” value (BLK) was 87% and the “% Ctrl” value (EPHA1) was 82%. For the same compound, the “% Ctrl” value (CSK) was 96%, the “% Ctrl” value (EGFR(L861Q)) was 94% and the “% Ctrl” value (ABL1-nonphosphorylated) was 87%. The “% Ctrl” value (EPHA7) was 98%, the “% Ctrl” value (FLT3(D835V)) was 89% and the “% Ctrl” value (TRKB) was 100%. The “% Ctrl” value (KIT(D816V)) was 100%, the “% Ctrl” value (SRC) was 100% and the “% Ctrl” value (MST1R) was 95%. The “% Ctrl” value (EPHB3) was 89%, the “% Ctrl” value (RET(V804L)) was 84% and the “% Ctrl” value (ERBB2) was 100%. For the same compound, the “% Ctrl” value (MET(Y1235D)) was 100%, the “% Ctrl” value (TIE2) was 92% and the “% Ctrl” value (LTK) was 93%. The “% Ctrl” value (BRK) was 79%, the “% Ctrl” value (EPHA6) was 91% and the “% Ctrl” value (TYRO3) was 84%. The “% Ctrl” value (KIT) was 98%, the “% Ctrl” value (ERBB4) was 97% and the “% Ctrl” value (ALK) was 71%. For the same compound, the “% Ctrl” value (KIT(V559D)) was 96%, the “% Ctrl” value [1] was 86% and the “% Ctrl” value (FGFR3(G697C)) was 93%. For the same compound, the “% Ctrl” value (CTK) was 84%, the “% Ctrl” value (EGFR(E746-A750del)) was 95% and the “% Ctrl” value (KIT(L576P)) was 97%. The “% Ctrl” value (EPHA8) was 77%, the “% Ctrl” value [2] was 94% and the “% Ctrl” value (TRKC) was 98%. The “% Ctrl” value (VEGFR2) was 92%, the “% Ctrl” value [3] was 79% and the “% Ctrl” value (EGFR(L858R)) was 90%.
